# Values of other authors, collected in patent US20240043928A1, “BIOMARKERS FOR MYELODYSPLASTIC SYNDROME (MDS) AND METHODS OF USING THE SAME” (Eisai R&D Management Co., Ltd., priority 2020, published 2024).
# Conditions: subjects of a prior phase 1 trial; cited from earlier work
smiles,measurement,value
CC[C@H](O)[C@@H](C)[C@H]1O[C@@H]1C[C@@](C)(O)/C=C/C=C(\C)[C@H]1OC(=O)C[C@H](O)CC[C@@](C)(O)[C@@H](OC(=O)N2CCN(C3CCCCCC3)CC2)/C=C/[C@@H]1C [Compound E7107],visual loss,visual loss was observed
